Target: human TRPA1 (Homo sapiens (Human), UniProt O75762)
Experiment: Measurement of TRPA1 antagonist activity (1): intracellular calcium increase
Type: cell-based
Details: 293T cells transfected with human TRPA1 expression plasmid; allylisothiocyanate 20 μM stimulation; intracellular calcium fluorescence; read-out: hTRPA1 IC50
How it was run: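 HEK293T cells transiently transfected with full-length human TRPA1, loaded with Calcium4 dye in HBSS/20 mM HEPES pH 7.2. Test compound preincubated 10 min, then allylisothiocyanate added at 20 μM final and fluorescence change followed for 5 min. IC50 from sigmoid fit of percent inhibition relative to agonist and buffer controls.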

human TRPA1, sequence (O75762 whole entry): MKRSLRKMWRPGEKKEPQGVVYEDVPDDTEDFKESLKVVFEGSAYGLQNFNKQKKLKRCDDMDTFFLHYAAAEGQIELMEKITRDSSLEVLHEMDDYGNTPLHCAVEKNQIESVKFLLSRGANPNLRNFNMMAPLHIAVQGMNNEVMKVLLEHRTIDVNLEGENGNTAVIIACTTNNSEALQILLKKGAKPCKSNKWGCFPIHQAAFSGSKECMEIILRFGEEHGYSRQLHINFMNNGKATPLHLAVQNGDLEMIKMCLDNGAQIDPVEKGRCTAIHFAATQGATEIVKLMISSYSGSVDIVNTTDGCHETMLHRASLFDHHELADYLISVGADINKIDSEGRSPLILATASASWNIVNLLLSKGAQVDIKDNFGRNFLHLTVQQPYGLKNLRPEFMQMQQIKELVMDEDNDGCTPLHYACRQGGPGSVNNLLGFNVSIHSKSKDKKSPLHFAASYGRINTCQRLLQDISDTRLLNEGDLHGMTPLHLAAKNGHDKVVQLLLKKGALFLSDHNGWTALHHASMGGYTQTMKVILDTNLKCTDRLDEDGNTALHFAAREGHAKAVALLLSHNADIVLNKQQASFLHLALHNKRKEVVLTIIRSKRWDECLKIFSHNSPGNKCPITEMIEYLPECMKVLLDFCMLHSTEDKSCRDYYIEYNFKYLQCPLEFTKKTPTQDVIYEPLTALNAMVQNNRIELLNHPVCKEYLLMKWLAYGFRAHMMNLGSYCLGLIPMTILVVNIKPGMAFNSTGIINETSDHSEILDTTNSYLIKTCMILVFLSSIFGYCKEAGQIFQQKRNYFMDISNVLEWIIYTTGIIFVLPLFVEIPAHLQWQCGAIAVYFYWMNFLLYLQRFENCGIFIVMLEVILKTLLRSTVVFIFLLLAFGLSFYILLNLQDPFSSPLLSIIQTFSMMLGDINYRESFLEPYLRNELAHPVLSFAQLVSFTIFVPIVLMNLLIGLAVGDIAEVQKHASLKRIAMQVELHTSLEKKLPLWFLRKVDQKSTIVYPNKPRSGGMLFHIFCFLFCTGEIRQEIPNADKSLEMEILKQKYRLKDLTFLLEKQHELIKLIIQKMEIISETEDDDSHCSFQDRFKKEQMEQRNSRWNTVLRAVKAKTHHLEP

Row | Structure (SMILES) | IC50 [nM]
1 | O=C(NCc1ccnc(-c2ccc(C(F)(F)F)cn2)c1)[C@@H]1CCCN1S(=O)(=O)c1cc2cc(F)ccc2o1 [Example 221, (2S)-1-(5-fluorobenzofuran-2-yl)sulfonyl-N-[[2-[5-(trifluoromethyl)-2-pyridyl]-4-pyridyl]methyl]pyrrolidine-2-carboxamide] | 6.6
2 | O=C(NCc1cc(-c2ccc(OC(F)(F)F)cc2)ccn1)[C@@H]1CCCN1S(=O)(=O)c1cc2cc(F)ccc2o1 [Example 222, (2S)-1-(5-fluorobenzofuran-2-yl)sulfonyl-N-[[4-[4-(trifluoromethoxy)phenyl]-2-pyridyl]methyl]pyrrolidine-2-carboxamide] | 2.4
3 | O=C(NCc1cc(-c2ccc(C(F)(F)F)cn2)ccn1)[C@@H]1CCCN1S(=O)(=O)c1cc2cc(F)ccc2o1 [Example 223, (2S)-1-(5-fluorobenzofuran-2-yl)sulfonyl-N-[[4-[5-(trifluoromethyl)-2-pyridyl]-2-pyridyl]methyl]pyrrolidine-2-carboxamide] | 0.88
4 | O=C(NCc1cc(-c2ccc(C(F)(F)F)nc2)ncn1)[C@@H]1CCCN1S(=O)(=O)c1cc2cc(F)ccc2o1 [Example 224, (2S)-1-(5-fluorobenzofuran-2-yl)sulfonyl-N-[[6-[6-(trifluoromethyl)-3-pyridyl]pyrimidin-4-yl]methyl]pyrrolidine-2-carboxamide] | 0.66
5 | O=C(NCc1cc(-c2ccc(C(F)(F)F)cn2)ccn1)[C@@H]1C=CCN1S(=O)(=O)c1cc2cc(F)ccc2o1 [Example 225, (2S)-1-(5-fluorobenzofuran-2-yl)sulfonyl-N-[[4-[5-(trifluoromethyl)-2-pyridyl]-2-pyridyl]methyl]-2,5-dihydropyrrole-2-carboxamide] | 1.3
6 | O=C(NCc1cc(-c2ccc(C(F)(F)F)cc2)ncn1)[C@@H]1[C@@H](O)CCN1S(=O)(=O)c1cc2ccccc2o1 [Example 226, (2S,3S)-1-(benzofuran-2-ylsulfonyl)-3-hydroxy-N-[[6-[4-(trifluoromethyl)-phenyl]pyrimidin-4-yl]methyl]pyrrolidine-2-carboxamide] | 25
7 | O=C(NCc1cc(-c2ccc(C(F)(F)F)cn2)ccn1)[C@@H]1[C@@H](O)CCN1S(=O)(=O)c1cc2ccccc2o1 [Example 227, (2S,3S)-1-(benzofuran-2-ylsulfonyl)-3-hydroxy-N-[[4-[5-(trifluoromethyl)-2-pyridyl]-2-pyridyl]methyl]pyrrolidine-2-carboxamide] | 42
8 | O=C(NCc1cc(-c2ccc(C(F)(F)F)cn2)ccn1)[C@@H]1[C@@H](O)CCN1S(=O)(=O)c1cc2cc(F)ccc2o1 [Example 228, (2S,3S)-1-(5-fluorobenzofuran-2-yl)sulfonyl-3-hydroxy-N-[[4-[5-(trifluoromethyl)-2-pyridyl]-2-pyridyl]methyl]pyrrolidine-2-carboxamide] | 32
9 | O=C(NCc1cc(-c2ccc(C(F)(F)F)cn2)ccn1)[C@@H]1CC(F)(F)CN1S(=O)(=O)c1cc2cc(F)ccc2o1 [Example 229, (2S)-4,4-difluoro-1-(5-fluorobenzofuran-2-yl)sulfonyl-N-[[4-[5-(trifluoromethyl)-2-pyridyl]-2-pyridyl]methyl]pyrrolidine-2-carboxamide] | 12
10 | O=C(NCc1cc(-c2ccc(C(F)(F)F)cn2)ccn1)[C@@H]1CCN1S(=O)(=O)c1cc2cc(F)ccc2o1 [Example 230, (2S)-1-(5-fluorobenzofuran-2-yl)sulfonyl-N-[[4-[5-(trifluoromethyl)-2-pyridyl]-2-pyridyl]methyl]azetidine-2-carboxamide] | 4.4
11 | C[C@H](NS(=O)(=O)c1cc2ccccc2o1)C(=O)NCc1cc(-c2ccc(OC(F)(F)F)cc2)ncn1 [Example 231, (2S)-2-(benzofuran-2-ylsulfonylamino)-N-[[6-[4-(trifluoromethoxy)phenyl]-pyrimidin-4-yl]methyl]propanamide] | 14
12 | C[C@H](NS(=O)(=O)c1cc2cc(F)ccc2o1)C(=O)NCc1cc(-c2ccc(OC(F)(F)F)cc2)ccn1 [Example 239, (2S)-2-[(5-fluorobenzofuran-2-yl)sulfonylamino]-N-[[4-[4-(trifluoromethoxy)phenyl]-2-pyridyl]methyl]propanamide] | 17
13 | C[C@H](NS(=O)(=O)c1cc2cc(F)ccc2o1)C(=O)NCc1cc(-c2ncc(C(F)(F)F)cn2)ccn1 [Example 242, (2S)-2-[(5-fluorobenzofuran-2-yl)sulfonylamino]-N-[[4-[5-(trifluoromethyl)pyrimidin-2-yl]-2-pyridyl]methyl]propanamide] | 160
14 | C[C@H](NS(=O)(=O)c1cc2cc(F)ccc2o1)C(=O)NCc1cc(-c2ccc(C(F)(F)F)cn2)ncn1 [Example 247, (2S)-2-[(5-fluorobenzofuran-2-yl)sulfonylamino]-N-[[6-[5-(trifluoromethyl)-2-pyridyl]pyrimidin-4-yl]methyl]propanamide] | 64
15 | C[C@H](NS(=O)(=O)c1cc2cc(F)ccc2o1)C(=O)NCc1cc(-c2cnc(C(F)(F)F)nc2)ncn1 [Example 248, (2S)-2-[(5-fluorobenzofuran-2-yl)sulfonylamino]-N-[[6-[2-(trifluoromethyl)pyrimidin-5-yl]pyrimidin-4-yl]methyl]propanamide] | 20

Further lines, results first:

Row | IC50 [nM] | Structure (SMILES)
16 | 77 | C[C@H](NS(=O)(=O)c1cc2cc(F)ccc2o1)C(=O)NCc1cccc(-c2ncc(C(F)(F)F)cn2)c1 [Example 232, (2S)-2-[(5-fluorobenzofuran-2-yl)sulfonylamino]-N-[[3-[5-(trifluoromethyl)pyrimidin-2-yl]phenyl]methyl]propanamide]
17 | 10 | C[C@H](NS(=O)(=O)c1cc2cc(F)ccc2o1)C(=O)NCc1cccc(-c2cnc(C(F)(F)F)nc2)c1 [Example 233, (2S)-2-[(5-fluorobenzofuran-2-yl)sulfonylamino]-N-[[3-[2-(trifluoromethyl)pyrimidin-5-yl]phenyl]methyl]propanamide]
18 | 34 | C[C@H](NS(=O)(=O)c1cc2cc(F)ccc2o1)C(=O)NCc1cccc(-c2cnc(C(F)(F)F)cn2)c1 [Example 234, (2S)-2-[(5-fluorobenzofuran-2-yl)sulfonylamino]-N-[[3-[5-(trifluoromethyl)pyrazin-2-yl]phenyl]methyl]propanamide]
19 | 20 | C[C@H](NS(=O)(=O)c1cc2cc(F)ccc2o1)C(=O)NCc1cccc(-c2ccc(C(F)(F)F)nn2)c1 [Example 235, (2S)-2-[(5-fluorobenzofuran-2-yl)sulfonylamino]-N-[[3-[6-(trifluoromethyl)pyridazin-3-yl]phenyl]methyl]propanamide]
20 | 31 | C[C@H](NS(=O)(=O)c1cc2cc(F)ccc2o1)C(=O)NCc1ccnc(-c2ccc(C(F)(F)F)nc2)c1 [Example 236, (2S)-2-[(5-fluorobenzofuran-2-yl)sulfonylamino]-N-[[2-[6-(trifluoromethyl)-3-pyridyl]-4-pyridyl]methyl]propanamide]
21 | 270 | C[C@H](NS(=O)(=O)c1cc2cc(F)ccc2o1)C(=O)NCc1ccnc(-c2ccc(C(F)(F)F)cn2)c1 [Example 237, (2S)-2-[(5-fluorobenzofuran-2-yl)sulfonylamino]-N-[[2-[5-(trifluoromethyl)-2-pyridyl]-4-pyridyl]methyl]propanamide]
22 | 42 | C[C@H](NS(=O)(=O)c1cc2cc(F)ccc2o1)C(=O)NCc1ccnc(-c2cnc(C(F)(F)F)nc2)c1 [Example 238, (2S)-2-[(5-fluorobenzofuran-2-yl)sulfonylamino]-N-[[2-[2-(trifluoromethyl)pyrimidin-5-yl]-4-pyridyl]methyl]propanamide]
23 | 14 | C[C@H](NS(=O)(=O)c1cc2cc(F)ccc2o1)C(=O)NCc1cc(-c2ccc(C(F)(F)F)cn2)ccn1 [Example 240, (2S)-2-[(5-fluorobenzofuran-2-yl)sulfonylamino]-N-[[4-[5-(trifluoromethyl)-2-pyridyl]-2-pyridyl]methyl]propanamide]
24 | 75 | C[C@H](NS(=O)(=O)c1cc2cc(F)ccc2o1)C(=O)NCc1cc(-c2cnc(C(F)(F)F)nc2)ccn1 [Example 241, (2S)-2-[(5-fluorobenzofuran-2-yl)sulfonylamino]-N-[[4-[2-(trifluoromethyl)pyrimidin-5-yl]-2-pyridyl]methyl]propanamide]
25 | 55 | C[C@H](NS(=O)(=O)c1cc2cc(F)ccc2o1)C(=O)NCc1cc(-c2cnc(C(F)(F)F)cn2)ccn1 [Example 243, (2S)-2-[(5-fluorobenzofuran-2-yl)sulfonylamino]-N-[[4-[5-(trifluoromethyl)pyrazin-2-yl]-2-pyridyl]methyl]propanamide]
26 | 44 | C[C@H](NS(=O)(=O)c1cc2cc(F)ccc2o1)C(=O)NCc1cc(-c2ccc(C(F)(F)F)nn2)ccn1 [Example 244, (2S)-2-[(5-fluorobenzofuran-2-yl)sulfonylamino]-N-[[4-[6-(trifluoromethyl)pyridazin-3-yl]-2-pyridyl]methyl]propanamide]
27 | 120 | C[C@H](NS(=O)(=O)c1cc2cc(F)ccc2o1)C(=O)NCc1cncc(-c2ccc(C(F)(F)F)nc2)c1 [Example 245, (2S)-2-[(5-fluorobenzofuran-2-yl)sulfonylamino]-N-[[5-[6-(trifluoromethyl)-3-pyridyl]-3-pyridyl]methyl]propanamide]
28 | 110 | C[C@H](NS(=O)(=O)c1cc2cc(F)ccc2o1)C(=O)NCc1cncc(-c2ccc(C(F)(F)F)cn2)c1 [Example 246, (2S)-2-[(5-fluorobenzofuran-2-yl)sulfonylamino]-N-[[5-[5-(trifluoromethyl)-2-pyridyl]-3-pyridyl]methyl]propanamide]
29 | 170 | C[C@H](NS(=O)(=O)c1cc2cc(F)ccc2o1)C(=O)NCc1cnnc(-c2ccc(C(F)(F)F)cc2)c1 [Example 249, (2S)-2-[(5-fluorobenzofuran-2-yl)sulfonylamino]-N-[[6-[4-(trifluoromethyl)phenyl]-pyridazin-4-yl]methyl]propanamide]

Reference: patent publication US10626112B2, “Heterocyclic sulfonamide derivative and medicine comprising same” (EA PHARMA CO., LTD., priority 2014, dated 2020)
